The source of these data is patent publication US20260201008A1, “SECRETIN-DERIVED GLP1R SELECTIVE AGONISTS” (GUBRA A/S, priority 2023, published 2026).

Data set [1] in a line: Turbidity of crude library peptides (absorbance at 600 nm). Conditions: Physical stability of peptides. Type of data set: physicochemical. In a few lines:
(§1)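 Fibril formation is scored as average ThT fluorescence from duplicate samples monitored for 72 h at 40° C with shaking stress. Turbidity is the absorbance at 600 nm taken before heating. Peptide concentration was 267 μM at pH 4.0 or pH 7.0.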

The nature of data set [2]: Fibril formation of crude library peptides (Thioflavin T). Type of data set: physicochemical. More on the design: key: average ThT fluorescence emission at 480 nm (ex 450 nm), raw units. Conditions: Physical stability of peptides. In a few lines:
as §1

Data set [3] is described as follows: Thioflavin T fibril formation assay of purified peptides. In kind it is physicochemical. Conditions: 267 μM, phosphate buffer pH 7.0, 96 h at 40° C. Here is the method: Thioflavin T fibril formation assay: Peptides are dissolved as 267 μM in 50 mM phosphate buffer pH 7.0 for 2 h at room temperature on a rocking table. The samples were then divided into three replicates of 80 μl/well and mixed with 2 μl/well Thioflavin T (ThT) to a final concentration of 4 μM ThT in a black 384 well microplate with a clear bottom (Greiner #781096). The plate is inserted in a CLARIOstar Plus microplate reader (BMG Labtech) and fibril formation is measured as an increase in fluorescence emission at 480 nm (excitation at 450 nm) during 96 h at 40° C. with cycles of 5 min rest and 5 min linear shaking at 700 rpm.

Data set [4] is described as follows: Solubility of purified peptides. Type of data set: physicochemical. Conditions: 100 mM phosphate buffer, target pH 7.0, target approximately 10 mg/mL. As for the experimental part:
Solubility was tested in the following vehicles: 100 mM phosphate buffer facilitating a target pH of 7.0. Samples were directly dissolved in Mini-UniPrep Syringeless Filter 0.45 μm unit (Whatman). For the desired concentration, such as a concentration of approximately 10 mg/mL, 1050 nmol of peptide was dissolved in 400 μL vehicle. Samples were incubated for at least 1 h at room temperature on a rocking table. The pH was measured and adjusted. Samples were left on the rocking table for an additional hour before a second pH measurement and adjustment. Visual inspection was performed and noted before the filter was pushed. The concentration of peptide in the filtrate was determined using CAD (Charged Aerosol Detection), double determination was done for each sample. The measured concentration was reported in μM. Furthermore, the pH of the filtrate was measured and reported. Peptides with a measured concentration within +/−20% of target concentration are considered fully soluble.

Data set [5] addresses GLP1R (Homo sapiens, UniProt P43220). In words: hGLP1R potency, cAMP accumulation in CHO-K1 cells stably overexpressing hGLP1R. Conditions: for Selectivity: SCTR EC50/GLP1R EC50 ratio. In kind it is cell-based. More on the design: host or cells: CHO-K1. Put shortly: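 In the presence of 0.5 mM IBMX, compounds stimulated the cells for 30 minutes at room temperature. Accumulated cAMP was then detected by TR-FRET, with EC50 values fitted by variable-slope nonlinear regression.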

Data set [6] deals with SCTR (Homo sapiens, UniProt P47872). Description: hSCTR potency, cAMP accumulation in CHO-K1 cells stably overexpressing hSCTR. In kind it is cell-based. More on the design: alternatively Euroscreen ES-712-AF; FAST-0161L; host or cells: CHO-K1. Put shortly:
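In this Gs cAMP assay, stably transfected CHO-K1 hSCTR cells were stimulated at room temperature for 30 min in IBMX-containing buffer. Time-resolved FRET gave the signal. Replicates were increased when the top concentration changed or EC50 values differed 5-fold.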

In data set [7] the target is human GLP-1 receptor (hGLP1R) (human, UniProt P43220 24-463). In words: cell-based or functional assay.
For data set [8], the target named is human secretin receptor (hSCTR) (human, UniProt P47872 23-440). In words: cell-based or functional assay.

≈ marks a conversion by molar mass, not a printed value. Like-named read-outs stand apart in the source and are kept apart here. Numbered stars: 1 amine (or outer) side, 2 acyl side, 3 side chain; on linkers, the order of the positions; unused ones are H or OH. Square brackets hold non-standard residues; d marks the D form. Side chains are listed from the residue outwards. Ends that are not written are not given here. Peptide text beside a SMILES is read from it. * marks the point of attachment. C20 diacid = O=C(O)CCCCCCCCCCCCCCCCCCC(=O)*; γGlu = O=C(O)[C@H](CCC(=O)[*:2])N[*:1]; AEEA = NCCOCCOCC(=O)O; Aib = CC(C)(N)C(=O)O

Chain of human secretin receptor (hSCTR) (P47872 23-440): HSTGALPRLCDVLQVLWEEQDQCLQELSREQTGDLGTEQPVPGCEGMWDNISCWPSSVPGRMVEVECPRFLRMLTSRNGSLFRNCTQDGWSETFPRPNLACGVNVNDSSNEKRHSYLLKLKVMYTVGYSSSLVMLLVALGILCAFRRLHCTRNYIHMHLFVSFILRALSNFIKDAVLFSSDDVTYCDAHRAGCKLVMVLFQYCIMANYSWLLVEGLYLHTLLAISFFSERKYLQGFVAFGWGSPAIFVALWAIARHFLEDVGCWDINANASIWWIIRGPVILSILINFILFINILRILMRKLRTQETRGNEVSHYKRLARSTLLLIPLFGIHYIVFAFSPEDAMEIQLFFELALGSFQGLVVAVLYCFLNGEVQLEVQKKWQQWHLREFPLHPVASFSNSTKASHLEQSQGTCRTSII
Chain of SCTR (P47872 23-440): as above
Chain of GLP1R (P43220 24-463): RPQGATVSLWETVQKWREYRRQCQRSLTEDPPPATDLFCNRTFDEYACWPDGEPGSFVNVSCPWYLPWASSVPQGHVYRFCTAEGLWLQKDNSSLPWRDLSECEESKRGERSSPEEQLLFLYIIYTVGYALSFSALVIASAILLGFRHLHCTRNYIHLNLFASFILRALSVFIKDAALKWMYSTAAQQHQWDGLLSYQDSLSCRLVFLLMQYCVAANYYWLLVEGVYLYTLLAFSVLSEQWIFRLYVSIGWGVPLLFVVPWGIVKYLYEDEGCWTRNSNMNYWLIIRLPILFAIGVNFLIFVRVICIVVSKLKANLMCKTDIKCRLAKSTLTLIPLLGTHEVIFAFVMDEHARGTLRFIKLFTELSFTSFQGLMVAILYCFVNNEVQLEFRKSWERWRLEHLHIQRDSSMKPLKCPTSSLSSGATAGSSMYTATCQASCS

In the case of `CC(C)C[C@H](NC(=O)[C@H](Cc1ccccc1)NC(=O)[C@H](CCCNC(=N)N)NC(=O)[C@H](CCC(N)=O)NC(=O)[C@H](CC(C)C)NC(=O)C(C)(C)NC(=O)[C@H](C)NC(=O)[C@H](CCC(=O)O)NC(=O)[C@H](CCC(=O)O)NC(=O)[C@H](CCCCNC(=O)COCCOCCNC(=O)COCCOCCNC(=O)CC[C@H](NC(=O)CCCCCCCCCCCCCCCCCCC(=O)O)C(=O)O)NC(=O)[C@H](CC(C)C)NC(=O)[C@H](CCC(=O)O)NC(=O)[C@H](CO)NC(=O)[C@@H](NC(=O)[C@H](CC(=O)O)NC(=O)[C@H](CO)NC(=O)[C@@H](NC(=O)[C@H](Cc1ccccc1)NC(=O)[C@@H](NC(=O)CNC(=O)[C@H](CCC(=O)O)NC(=O)C(C)(C)NC(=O)[C@@H](N)Cc1c[nH]cn1)[C@@H](C)O)[C@@H](C)O)C(C)C)C(=O)N[C@@H](CCC(=O)O)C(=O)N[C@@H](Cc1c[nH]cn1)C(=O)N[C@@H](CC(C)C)C(=O)N[C@H](C(N)=O)C(C)C` [compound 168] (H-H[Aib]EGTFTSDVSELK([AEEA-AEEA-γGlu-C20 diacid])EEA[Aib]LQRFLEHLV-NH2), the “Turbidity (pH 7)” value in data set [1] is 0.08. Besides, the Fibril formation in data set [2] is reported as 2998; in data set [3], “No”. The solubility in data set [4] amounted to 9800 µg/mL (≈ 2560 µM). Moreover, in data set [5] (purified peptides), the Selectivity was 8333. In addition, the EC50 was 0.00631 nM in data set [5] (cAMP accumulation, CHO-K1 cells overexpressing hGLP1R, read-out: hGLP1R pEC50 (converted)); 50.1 nM in data set [6] (cAMP accumulation, CHO-K1 cells overexpressing hSCTR, read-out: hSCTR pEC50 (converted)); 100 nM in data set [6] (purified peptides, read-out: hSCTR EC50). In addition, the “SCTR EC50/GLP1R EC50 ratio” value in data set [5] (selectivity for hGLP1R over hSCTR, cAMP accumulation in CHO-K1 cells) is given as 6853.

On to `CC(C)C[C@H](NC(=O)[C@H](CC(C)C)NC(=O)[C@H](Cc1ccc(O)cc1)NC(=O)[C@H](CO)NC(=O)[C@@H](NC(=O)[C@H](CC(=O)O)NC(=O)[C@H](CO)NC(=O)[C@@H](NC(=O)[C@H](Cc1ccccc1)NC(=O)[C@@H](NC(=O)CNC(=O)[C@H](CCC(=O)O)NC(=O)C(C)(C)NC(=O)[C@@H](N)Cc1c[nH]cn1)[C@@H](C)O)[C@@H](C)O)C(C)C)C(=O)N[C@@H](CCC(=O)O)C(=O)N[C@@H](CCC(=O)O)C(=O)N[C@@H](C)C(=O)NC(C)(C)C(=O)N[C@@H](CC(C)C)C(=O)N[C@@H](CCC(N)=O)C(=O)N[C@@H](CCCNC(=N)N)C(=O)N[C@@H](Cc1ccccc1)C(=O)N[C@@H](CC(C)C)C(=O)N[C@@H](CCC(=O)O)C(=O)N[C@@H](CCCCNC(=O)COCCOCCNC(=O)COCCOCCNC(=O)CC[C@H](NC(=O)CCCCCCCCCCCCCCCCCCC(=O)O)C(=O)O)C(=O)N[C@@H](CC(C)C)C(=O)N[C@H](C(=O)N[C@@H](CCC(=O)O)C(=O)N[C@@H](C)C(=O)N[C@@H](C)C(N)=O)C(C)C` [compound 213] (H-H[Aib]EGTFTSDVSYLLEEA[Aib]LQRFLEK([AEEA-AEEA-γGlu-C20 diacid])LVEAA-NH2), for which, in data set [3], the Fibril formation entry is “No”. The molecule further displayed a solubility in data set [4] of 8200 µg/mL (≈ 2000 µM). In addition, the Selectivity in data set [5] (Table 2, extended 30 amino acid peptides) stood at 54706; in data set [5] (purified peptides) it was 63571. In addition, the EC50 in data set [5] (Table 2, extended 30 amino acid peptides, read-out: PEC50 hGLPR1 (converted)) is 0.0158 nM; in data set [6] (Table 2, extended 30 amino acid peptides, read-out: pEC50 hSCTR (converted)), 1000 nM.

B1: SEQ ID NO: 221 (peptide)
peptide: H[Aib]EGTFTSDPSRLLEGAALQRFIQWLV-NH2
modifications: N-terminus assumed
SMILES: CC[C@H](C)[C@H](NC(=O)[C@H](Cc1ccccc1)NC(=O)[C@H](CCCNC(=N)N)NC(=O)[C@H](CCC(N)=O)NC(=O)[C@H](CC(C)C)NC(=O)[C@H](C)NC(=O)[C@H](C)NC(=O)CNC(=O)[C@H](CCC(=O)O)NC(=O)[C@H](CC(C)C)NC(=O)[C@H](CC(C)C)NC(=O)[C@H](CCCNC(=N)N)NC(=O)[C@H](CO)NC(=O)[C@@H]1CCCN1C(=O)[C@H](CC(=O)O)NC(=O)[C@H](CO)NC(=O)[C@@H](NC(=O)[C@H](Cc1ccccc1)NC(=O)[C@@H](NC(=O)CNC(=O)[C@H](CCC(=O)O)NC(=O)C(C)(C)NC(=O)[C@@H](N)Cc1c[nH]cn1)[C@@H](C)O)[C@@H](C)O)C(=O)N[C@@H](CCC(N)=O)C(=O)N[C@@H](Cc1c[nH]c2ccccc12)C(=O)N[C@@H](CC(C)C)C(=O)N[C@H](C(N)=O)C(C)C
With B1, in data set [7], the “pEC50 hGLPR1” value was 8.6 -log M. The “pEC50 hSCTR” value in data set [8] is 5.3 -log M.

B2: SEQ ID NO: 218 (peptide)
peptide: H[Aib]EGTFTSDISRLLEGAALQRFIQWLV-NH2
modifications: N-terminus assumed
SMILES: CC[C@H](C)[C@H](NC(=O)[C@H](Cc1ccccc1)NC(=O)[C@H](CCCNC(=N)N)NC(=O)[C@H](CCC(N)=O)NC(=O)[C@H](CC(C)C)NC(=O)[C@H](C)NC(=O)[C@H](C)NC(=O)CNC(=O)[C@H](CCC(=O)O)NC(=O)[C@H](CC(C)C)NC(=O)[C@H](CC(C)C)NC(=O)[C@H](CCCNC(=N)N)NC(=O)[C@H](CO)NC(=O)[C@@H](NC(=O)[C@H](CC(=O)O)NC(=O)[C@H](CO)NC(=O)[C@@H](NC(=O)[C@H](Cc1ccccc1)NC(=O)[C@@H](NC(=O)CNC(=O)[C@H](CCC(=O)O)NC(=O)C(C)(C)NC(=O)[C@@H](N)Cc1c[nH]cn1)[C@@H](C)O)[C@@H](C)O)[C@@H](C)CC)C(=O)N[C@@H](CCC(N)=O)C(=O)N[C@@H](Cc1c[nH]c2ccccc12)C(=O)N[C@@H](CC(C)C)C(=O)N[C@H](C(N)=O)C(C)C
As to B2, the “pEC50 hGLPR1” value in data set [7] is 10.4 -log M. Also, the “pEC50 hSCTR” value in data set [8] is 7.8 -log M.

B3: SEQ ID NO: 220 (peptide)
peptide: H[Aib]EGTFTSDVSRLLEGAALQRFIQWLV-NH2
modifications: N-terminus assumed
SMILES: CC[C@H](C)[C@H](NC(=O)[C@H](Cc1ccccc1)NC(=O)[C@H](CCCNC(=N)N)NC(=O)[C@H](CCC(N)=O)NC(=O)[C@H](CC(C)C)NC(=O)[C@H](C)NC(=O)[C@H](C)NC(=O)CNC(=O)[C@H](CCC(=O)O)NC(=O)[C@H](CC(C)C)NC(=O)[C@H](CC(C)C)NC(=O)[C@H](CCCNC(=N)N)NC(=O)[C@H](CO)NC(=O)[C@@H](NC(=O)[C@H](CC(=O)O)NC(=O)[C@H](CO)NC(=O)[C@@H](NC(=O)[C@H](Cc1ccccc1)NC(=O)[C@@H](NC(=O)CNC(=O)[C@H](CCC(=O)O)NC(=O)C(C)(C)NC(=O)[C@@H](N)Cc1c[nH]cn1)[C@@H](C)O)[C@@H](C)O)C(C)C)C(=O)N[C@@H](CCC(N)=O)C(=O)N[C@@H](Cc1c[nH]c2ccccc12)C(=O)N[C@@H](CC(C)C)C(=O)N[C@H](C(N)=O)C(C)C
With B3, the “pEC50 hGLPR1” value in data set [7] is 10.2 -log M. For the same molecule, the “pEC50 hSCTR” value in data set [8] was 7.2 -log M.

B4: SEQ ID NO: 222 (peptide)
peptide: H[Aib]EGTFTSD[Aib]SRLLEGAALQRFIQWLV-NH2
modifications: N-terminus assumed
SMILES: CC[C@H](C)[C@H](NC(=O)[C@H](Cc1ccccc1)NC(=O)[C@H](CCCNC(=N)N)NC(=O)[C@H](CCC(N)=O)NC(=O)[C@H](CC(C)C)NC(=O)[C@H](C)NC(=O)[C@H](C)NC(=O)CNC(=O)[C@H](CCC(=O)O)NC(=O)[C@H](CC(C)C)NC(=O)[C@H](CC(C)C)NC(=O)[C@H](CCCNC(=N)N)NC(=O)[C@H](CO)NC(=O)C(C)(C)NC(=O)[C@H](CC(=O)O)NC(=O)[C@H](CO)NC(=O)[C@@H](NC(=O)[C@H](Cc1ccccc1)NC(=O)[C@@H](NC(=O)CNC(=O)[C@H](CCC(=O)O)NC(=O)C(C)(C)NC(=O)[C@@H](N)Cc1c[nH]cn1)[C@@H](C)O)[C@@H](C)O)C(=O)N[C@@H](CCC(N)=O)C(=O)N[C@@H](Cc1c[nH]c2ccccc12)C(=O)N[C@@H](CC(C)C)C(=O)N[C@H](C(N)=O)C(C)C
Regarding B4, the “pEC50 hGLPR1” value in data set [7] was 9.9 -log M. Moreover, in data set [8], the “pEC50 hSCTR” value is 6.5 -log M.
